PMC137588 (BMC Neuroscience, 2002)
Like-named read-outs stand apart in the source and are kept apart here.

Tests used:
mouse δ opioid receptor [1] = biological target: T1, mouse δ opioid receptor (Mus musculus, UniProt P32300); experiment: cell-based; type: cell-based; settings: for Emax: HEK293, read-out: Max Inhibition %
mouse δ opioid receptor [2] = biological target: T1, mouse δ opioid receptor
μ opioid receptors [3] = settings: ref Gharagozlou et al. unpublished results; cited from earlier work
μ opioid receptors [4] = settings: ref Gharagozlou et al. unpublished results; cited from earlier work; remark: listed apart in the source
mouse δ opioid receptor [5] = biological target: T1, mouse δ opioid receptor; type: binding; settings: read-out: AFFINITY Ki

T1 sequence (P32300 whole entry): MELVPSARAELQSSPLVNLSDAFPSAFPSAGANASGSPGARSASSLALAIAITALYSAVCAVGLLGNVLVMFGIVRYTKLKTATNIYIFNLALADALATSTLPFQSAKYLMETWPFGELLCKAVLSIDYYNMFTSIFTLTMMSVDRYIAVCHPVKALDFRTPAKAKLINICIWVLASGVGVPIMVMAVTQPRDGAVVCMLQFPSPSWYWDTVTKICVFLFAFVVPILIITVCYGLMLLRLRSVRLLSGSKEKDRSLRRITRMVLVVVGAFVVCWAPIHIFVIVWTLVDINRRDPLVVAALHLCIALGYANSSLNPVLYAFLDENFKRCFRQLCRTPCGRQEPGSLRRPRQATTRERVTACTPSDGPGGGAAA

Oc1ccc2c(c1)[C@@]13CCCC[C@@]1(O)[C@@H](C2)N(CC1CCC1)CC3 [Butorphanol]
Emax (mouse δ opioid receptor [1]): 64 ± 4% | IC50 (mouse δ opioid receptor [1]; IC50 ± SEM): 61 ± 12 nM

C[C@H]1[C@H]2Cc3ccc(O)cc3[C@]1(C)CCN2CC1CC1 [Cyclazocine]
Emax (mouse δ opioid receptor [1]): 53 ± 2% | IC50 (mouse δ opioid receptor [1]; IC50 ± SEM): 6 ± 3 nM

C[C@@]12CCCCC[C@@H](Cc3ccc(O)cc31)[C@@H]2N [Dezocine]
Emax (mouse δ opioid receptor [1]): 39% | IC50 (mouse δ opioid receptor [1]; IC50 ± SEM): 477 ± 152 nM

C[C@H]1[C@H]2Cc3ccc(O)cc3[C@]1(C)CCN2C [Metazocine]
Agonist efficacy classification at δ opioid receptors (mouse δ opioid receptor [1]): super agonists | Emax (mouse δ opioid receptor [1]): 77 ± 4% | IC50 (mouse δ opioid receptor [1]; IC50 ± SEM): 159 ± 70 nM

C=CCN1CC[C@]23c4c5ccc(O)c4O[C@H]2[C@@H](O)C=C[C@H]3[C@H]1C5 [Nalorphine]
Classification as antagonist at δ opioid receptor (mouse δ opioid receptor [2]): Antagonist

C=CCN1CCC2(C)c3cc(O)ccc3CC1C2C (centres unmarked) [SKF 10047]
Emax (mouse δ opioid receptor [1]): 68 ± 9% | IC50 (mouse δ opioid receptor [1]; IC50 ± SEM): 184 ± 121 nM

CN1CC[C@]2(C)c3cc(O)ccc3C[C@H]1C2(C)CCC(=O)CCC1CCCC1 (some centres unmarked) [WIN 44,441]
Max Inhibition % (mouse δ opioid receptor [1]): 54 ± 6 % | IC50 (mouse δ opioid receptor [1]; read-out: IC50 ± SEM): 40 ± 25 nM | activation profile at μ opioid receptors (μ opioid receptors [3]): antagonist | affinity at μ opioid receptors (μ opioid receptors [4]): less than 1 nM | Ki (mouse δ opioid receptor [5]): 2.6 ± 0.9 nM

C=C1C[C@H](C)[C@H]2[C@H]3Cc4ccc(O)cc4[C@@]2(CCN3CC2CCC2)C1 [Xorphanol]
Agonist efficacy classification at δ opioid receptors (mouse δ opioid receptor [1]): super agonists | Max Inhibition % (mouse δ opioid receptor [1]): 76 ± 4^$$ ## % | IC50 (mouse δ opioid receptor [1]; read-out: IC50 ± SEM): 8 ± 2 nM | activation profile at μ opioid receptors (μ opioid receptors [3]): very weak agonist | affinity at μ opioid receptors (μ opioid receptors [4]): less than 1 nM | Ki (mouse δ opioid receptor [5]): 1 ± 0.2 nM
